# Measured values taken from US20180369241A1, “TREATMENT OF CANCER WITH DNAPK INHIBITORS” (Celgene Corporation, priority 2015, published 2018).
# What was measured:
# PC3 xenograft tumors = assay: PC3 xenograft tumor growth; assay type: in vivo
# Description: (§1) FIG. 10 provides: Body weight measurements of LNCaP-AR xenograft mice after treatment with NU7441 (panel A); Growth curves of VCaP xenograft tumors with various doses of Compound 1 (administered once daily via oral gavage, 5 times per week for 6 weeks) or vehicle (panel B); Body weight measurements of VCaP xenograft mice after treatment with various Compound 1 doses (panel C); and Growth curves of PC3 xenograft tumors treated with Compound 1 or vehicle (panel D). All graphs are mean±S.E.M. *=p<0.05 compared to vehicle.
# VCaP xenograft tumors = assay type: in vivo, mice
# Description: as §1
# LNCaP-AR cells [1] = assay: Boyden chamber migration and invasion assay, crystal violet quantification; assay type: cell-based
# Description: (§2) FIG. 2 provides: Representative images (200×) and crystal violet quantification of migration (panel A) and invasion (panel B) of C4-2, LNCaP-AR and PC3 cells in Boyden chamber assays after DNAPK knockdown (siRNA) or inhibition (NU7441); C4-2, LNCaP-AR and PC3 cell growth curves after DNAPK inhibition (NU7441) (panel C) or knockdown (siRNA) (panel D); and DNAPK knockdown by siRNA relative to non-targeting (siNTC) control (panel E). *p<0.05, […] compared to respective controls. All graphs are mean±S.D.
# (§3) FIG. 4 provides: Expression of Wnt pathway genes after DNAPK knockdown (panel A) or inhibition (NU7441) (panel B) in LNCaP-AR cells; Immunoblot analyses of DNAPK, phospho-DNAPK (pDNAPK), active beta catenin (βcatenin), and cMyc levels in LNCaP-AR and C4-2 cells after DNAPK knockdown (siDNAPK) or inhibition (NU7441) with or without Wnt3A stimulation (panels C-D); Representative images (200×) and crystal violet quantification of LNCaP-AR and C4-2 cell invasion and migration after DNAPK inhibition (NU7441 or Compound 1) with or without Wnt3A stimulation (panel E); and Representative images (200×) and crystal violet quantification of enzalutamide-resistant LNCaP-AR (LNCaP-AR-enza-res) cell invasion and migration after DNAPK inhibition (NU7441 or Compound 1) or continued enzalutamide treatment (Enza) (panel F). All graphs are mean±S.D. *=p<0.05 compared to respective controls. Enza=enzalutamide. Enza-res=enzalutamide resistant. RQ=relative quantity. siNTC=non-targeting siRNA control.
# C4-2 cells [2] = assay: as above; assay type: cell-based
# Description: as §2, §3
# LNCaP-AR xenografts = assay type: in vivo; settings: for median tumor tripling time: enzalutamide 10 mg/kg, Compound 1 2 mg/kg, vehicle 15 days
# Description: (§4) FIG. 6 provides: Growth curves of LNCaP-AR xenografts in castrated mice treated daily with vehicle (black, n=5) or 25 mg/kg NU7441 (gray, n=6) (panel A); Fold change in final tumor volume (panel B); Kaplan-Meier curves of freedom from tumor doubling time with vehicle or NU7441 (25 mg/kg) treatment of LNCaP-AR xenograft tumors (panel C); Growth curves of LNCaP-AR xenograft tumors with 5 times weekly oral gavage enzalutamide (10 mg/kg, n=16), Compound 1 (2 mg/kg, n=14), Compound 1+enzalutamide (n=14), or vehicle (n=14) treatment. Bar graph represents change in final tumor volume compared to starting tumor volume (panel D); Kaplan-Meier curves of freedom from tumor tripling with enzalutamide, Compound 1, enzalutamide+Compound 1, or vehicle treatment of LNCaP-AR xenograft tumors (panel E); Expression of select Wnt pathway target genes in human primary prostate tumor explants treated with NU7441 (n=6) or vehicle (panel F); and Representative images of Ki67 immunostaining of human primary prostate tumor explants treated with NU7441 (n=6) or vehicle; Ki67-positive nuclei are indicated with arrows (panel G). All graphs are mean±S.E.M. *=p<0.05 compared to respective control, #=p<0.05 for enzalutamide compared to Compound 1+enzalutamide, **=p<0.01 for Compound 1 compared to vehicle.
# as §1
# LNCaP-AR-MDVR cells = assay: Invasion and migration of enzalutamide-resistant LNCaP-AR cells, crystal violet quantification; assay type: cell-based
# Description: as §3
# FIG. 9 provides: Expression of Wnt pathway target genes in LNCaP-AR cells grown in enzalutamide until resistance (LNCaP-AR-enza-res) relative to LNCaP-AR cells grown in vehicle (DMSO) (panel A); and Expression of AR or AR-target genes FKBP5 and KLK3 (PSA) in LNCaP-AR-enza-res cells after treatment with 10 μM enzalutamide (panel B). GAPDH was used as internal reference, bars are mean±S.D. *=p<0.05. RQ=relative quantity.
# [3] = tested on: active beta-catenin and cMyc in C4-2 cells; assay: Immunoblot of active beta catenin and cMyc with or without Wnt3A stimulation; assay type: cell-based; settings: baseline and Wnt3A-induced
# Description: as §3
# [4] = tested on: active beta-catenin and cMyc in LNCaP-AR cells; assay: as above; assay type: cell-based; settings: baseline and Wnt3A-induced
# Description: as §3
# [5] = tested on: Wnt pathway genes in LNCaP-AR cells; assay: Expression of Wnt pathway genes after DNAPK inhibition; assay type: cell-based
# Description: as §3
# PC3 cells [6] = assay: Boyden chamber migration and invasion assay, crystal violet quantification; assay type: cell-based; settings: PC3 cells (AR-negative)
# Description: as §2
# PC3 cells [7] = assay: Cell growth curves after DNAPK inhibition; assay type: cell-based
# Description: as §2
# LNCaP-AR cells [8] = assay: Cell growth curves after DNAPK inhibition; assay type: cell-based
# Description: as §2
# C4-2 cells [9] = assay: Cell growth curves after DNAPK inhibition; assay type: cell-based
# Description: as §2
# [10] = tested on: human primary prostate tumor explants; assay: Human primary prostate tumor explants; settings: human prostate cancer explants
# Description: as §4
# [11] = tested on: TOPFLASH reporter in PC3 cells; assay: TOPFLASH luciferase reporter activity; assay type: cell-based; settings: baseline and Wnt3A-induced, normalized to renilla luciferase
# Description: FIG. 5 provides: Immunoblot analyses of DNAPK, KU70 and LEF1 after DNAPK immunoprecipitation (left), and LEF1 and DNAPK after LEF1 immunoprecipitation (right) in LNCaP-AR cells (panel A); TOPFLASH luciferase reporter activity in PC3 cells after DNAPK inhibition (NU7441) and/or Wnt3A stimulation; activity is normalized to renilla luciferase (panel B); and Representative images (200×) and crystal violet quantification of LNCaP-AR and C4-2 cell invasion and migration after DNAPK, LEF1 or beta catenin (CTNNB1) knockdown by siRNA. *=p<0.05 compared to respective controls, #=p<0.05 compared to Wnt3A (panel C). All graphs are mean±S.D. siNTC=non targeting siRNA control.
# [12] = tested on: Wnt pathway genes in C4-2 cells; assay: Expression of Wnt pathway genes after DNAPK inhibition; assay type: cell-based
# Description: FIG. 8 provides: Expression of Wnt pathway genes in C4-2 cells after inhibition (NU7441) (panel A) or knockdown (panel B) of DNAPK; and Expression of Notch pathway genes in LNCaP-AR, PC3 and C4-2 cells after knockdown of DNAPK (panel C). GAPDH was used as internal reference, bars are mean±S.D. *=p<0.05. RQ=relative quantity.
# [13] = LNCaP-AR (CRPC) cells, baseline and Wnt3A-induced
# [14] = C4-2 (CRPC) cells, baseline and Wnt3A-induced
smiles,measurement,setting,value
"CCN1C(=O)CNc2ncc(-c3ccc(-c4nc[nH]n4)nc3C)nc21 [Compound 1, 1-ethyl-7-(2-methyl-6-(1H-1,2,4-triazol-3-yl)pyridin-3-yl)-3,4-dihydropyrazino[2,3-b]pyrazin-2(1H)-one]",regression of AR-independent PC3 tumors,PC3 xenograft tumors,significant regression
same,toxicity (body weight),"VCaP xenograft tumors; mouse, in vivo, 2 mg/kg",non-toxic
same,tumor growth,"VCaP xenograft tumors; various doses, once daily oral gavage, 5 times per week for 6 weeks, best observed at 2 mg/kg",dose-dependent reduction
same,invasion,LNCaP-AR cells [1]; [13],abrogated
same,migration,LNCaP-AR cells [1]; [13],abrogated
same,invasion,C4-2 cells [2]; [14],abrogated
same,migration,C4-2 cells [2]; [14],abrogated
same,median tumor tripling time,LNCaP-AR xenografts; 5 times weekly oral gavage,29.5 days
same,tumor regression,"LNCaP-AR xenografts; pre-castrated conditions, 2 mg/kg, 5 times weekly oral gavage, comparator enzalutamide 10 mg/kg",significantly better tumor regression compared to enzalutamide
same,invasion,LNCaP-AR-MDVR cells,significantly reduced
same,migration,LNCaP-AR-MDVR cells,significantly reduced
O=c1cc(N2CCOCC2)oc2c(-c3cccc4c3sc3ccccc34)cccc12 [NU7441],levels of active beta-catenin,[3],reduced
same,levels of cMyc,[3],reduced
same,levels of active beta-catenin,[4],reduced
same,levels of cMyc,[4],reduced
same,Wnt pathway genes expression,[5],robust reduction
same,invasion,PC3 cells [6],drastically diminished
same,migration,PC3 cells [6],drastically diminished
same,invasion,LNCaP-AR cells [1]; [13],abrogated
same,migration,LNCaP-AR cells [1]; [13],abrogated
same,invasion,LNCaP-AR cells [1]; LNCaP-AR cells (AR-positive),drastically diminished
same,migration,LNCaP-AR cells [1]; LNCaP-AR cells (AR-positive),drastically diminished
same,invasion,C4-2 cells [2]; [14],abrogated
same,migration,C4-2 cells [2]; [14],abrogated
same,invasion,C4-2 cells [2]; C4-2 cells (AR-positive),drastically diminished
same,migration,C4-2 cells [2]; C4-2 cells (AR-positive),drastically diminished
same,proliferation,PC3 cells [7],drastically diminished
same,proliferation,LNCaP-AR cells [8],drastically diminished
same,proliferation,C4-2 cells [9],drastically diminished
same,reduction in tumor growth compared to control,"LNCaP-AR xenografts; castrated mice, 25 mg/kg daily",44%
same,relative tumor volume,"LNCaP-AR xenografts; castrated mice, 25 mg/kg daily, fold change in final tumor volume, vehicle 8.57±1.45",4.84±1.97
same,median tumor doubling time,"LNCaP-AR xenografts; castrated mice, 25 mg/kg daily, vehicle 7 days",21.5 days
same,toxicity as measured by body weight,"LNCaP-AR xenografts; mouse, in vivo",minimal
same,Wnt target gene expression,[10],marked reduction
same,"proliferative index, as determined by Ki67 levels",[10],marked reduction
same,TOPFLASH reporter activity,[11],significantly reduced
same,Wnt pathway genes expression,[12],robust reduction
same,invasion,LNCaP-AR-MDVR cells,significantly reduced
same,migration,LNCaP-AR-MDVR cells,significantly reduced
CNC(=O)c1ccc(N2C(=S)N(c3ccc(C#N)c(C(F)(F)F)c3)C(=O)C2(C)C)cc1F [enzalutamide],median tumor tripling time,LNCaP-AR xenografts; 5 times weekly oral gavage,23.5 days
